Laboratory results from patent US20090317293A1, “METHOD AND DEVICE FOR ELIMINATING MICROBES WITHIN INDUSTRIAL PIPELINES” (BioCorrosion Solutions Inc., priority 2008, published 2009).

Columns and labels:
[1] = tested on: D. desulfuricans biofilms; test: Photodynamic disinfection of well-plate biofilms, broadband light, anaerobic (Example XI); assay type: cell-based, Desulfovibrio desulfuricans; details: 0.1%, then 60 second broadband illumination
Protocol: (§1) In this study, biofilms of sulfate reducing bacteria were treated with photodynamic disinfection as in Example X above. In these experiments, however, illumination of the biofilms was performed using a broadband (wide wavelength) light source instead of a laser. […] For the broadband light photodynamic disinfection exposures, biofilms of D. vulgaris and D. sulfuricans were grown on the inner surface of flat-bottomed 96-well plates. In brief, 50 μl of liquid inoculum in log growth phase was added to each well, and plates were then incubated (37° C.) on an […] shaker at 125 rpm for 48 hours in order to allow biofilm growth. […] After this growth period, plates were removed from the shaker into an anaerobic cabinet, where all photodynamic disinfection treatments were performed. […] Raw surviving colony counts for each experimental condition were averaged and back-calculated given dilution factor to give data in CFU/ml. The data was presented as CFU/ml of surviving organisms after treatment, and kill rate was calculated as this value in experimental samples vs. control (no light, no photosensitizer) and expressed as both a log and percentage reduction in viability. […]

D. vulgaris biofilms = test: as above; assay type: cell-based, Desulfovibrio vulgaris; details: 0.1% w/v, 30 seconds, then 60 seconds broadband illumination (150 watt haloid lamp)
Protocol: as §1

[2] = tested on: D. vulgaris (ATCC#29579) biofilms; test: Photodynamic disinfection of peg biofilms, 670 nm laser, anaerobic (Example X); assay type: cell-based, Desulfovibrio vulgaris; details: control: methylene blue formulation alone, no laser light
[3] = tested on: D. desulfuricans (ATCC#14563) biofilms; test: as above; assay type: cell-based, Desulfovibrio desulfuricans; details: control: methylene blue formulation alone, no laser light
[4] = tested on: Desulfovibrio vulgaris (ATCC#29579); test: In vitro photodynamic disinfection of planktonic bacteria, aerobic and anaerobic (Example IX); assay type: cell-based
Protocol: An in vitro photodynamic disinfection model was used to evaluate antibacterial efficacy against a strain of bacteria commonly found in biofilms growing on the inner surface of industrial oil and gas pipelines. […] This organism is a facultative anaerobe, and typically grows in nature in environments that contain little or no oxygen. Thus, prior to the experiments the bacteria was grown on pre-reduced solid media (brucella blood agar enriched with haemin and vitamin K) at 37° C. under anaerobic conditions. The exposures to photodynamic disinfection were run in both anaerobic and aerobic conditions in order to determine the importance of local oxygen during the photoreaction. […] In addition, several experimental conditions were run in the presence of L-tryptophan, which is a known scavenger of singlet oxygen and other oxygen derived free radicals. The addition of L-tryptophan was designed to test whether the antimicrobial killing effect of photodynamic disinfection was in fact dependent on the generation of reactive forms of oxygen. […] In addition, controls consisting of exposure to either photosensitizer or illumination alone were run to ensure that neither of these variables contributed to bacterial killing on their own. For these photodynamic disinfection experiments, log phase planktonic bacterial inoculum was prepared to a concentration of 10^7 colony-forming units per milliliter (CFU/ml) in a buffered saline solution. […] After illumination, samples were serially diluted and plated on tryptic soy agar for 48 hours at 37° C. Raw surviving colony counts for each experimental condition were averaged and back-calculated given dilution factor to give data in CFU/ml. The data was presented as CFU/ml of surviving organisms after treatment, and kill rate was calculated as this value in experimental samples vs. control (no light, no photosensitizer) and expressed as both a log and percentage reduction in viability. The entire experimental protocol was performed in the dark, and all samples were exposed and plated one at a time to limit ambient light exposure and to maintain the exposure time of bacteria to test solution uniform across all replicates. All experimental and control conditions were run in triplicate for each individual experiment, and experiments were performed on three separate occasions to verify reproducibility.

[5] = tested on: D. desulfuricans (ATCC#14563) biofilms; test: Treatment of peg biofilms with chemical disinfectant, anaerobic (Example X); assay type: cell-based, Desulfovibrio desulfuricans
Protocol: (§2) Homogenous biofilms of the sulfate reducing organisms D. vulgaris (ATCC#29579) and D. desulfuricans (ATCC#14563) were grown on hard plastic pegs using a previously published protocol and system (Innovotech, Calgary, Canada). Briefly, bacterial suspensions of D. vulgaris and D. desulfuricans consisting of 10^8 CFU/ml were prepared in modified Barrs medium for sulfate reducers (ATCC), then diluted 1:40. 200 μl of this inoculum was added to each well of a 96-well plate. 96-peg lids were then placed into the wells and the assembly was incubated at 37° C. on an Excella E2 gyrorotary shaker (Fisher Scientific) at 125 rpm for 24 hours. For both biofilm protocols, all inoculum and plates were prepared and incubated anaerobically. During the incubation period, the visible formation of an insoluble black residue in each well indicated bacterial metabolism, and after incubation a visible biofilm was evident on each pegs.
(§3) For treatment of biofilms with benzalkonium chloride (BAC), biofilms grown on pegs as described above were used. 96-peg lids were removed from the bacterial inoculum after 24 hours of incubation, and rinsed twice to remove any free-floating organisms by placing the peg lid in 96-well plates containing 300 μl of sterile water. Pegs were then placed in aqueous solutions containing either 0% (water only control), 0.01%, 0.1%, or 1% BAC for 30 seconds. After this exposure pegs were immediately placed in recovery media and processed/plated as described above for enumeration of surviving organisms. All BAC exposure conditions were run in triplicate in anaerobic conditions for each organism.

[6] = tested on: D. vulgaris (ATCC#29579) biofilms; test: as above; assay type: cell-based, Desulfovibrio vulgaris
Protocol: as §2, §3

[7] = aerobic, 0.01% w/v aqueous methylene blue, 670 nm diode laser 20.6 J/cm2 (60 seconds), planktonic
[8] = anaerobic, 0.01% w/v aqueous methylene blue, 670 nm laser 20.6 J/cm2, planktonic
[9] = 30 second exposure to 0.01% aqueous solution
[10] = 30 second exposure to 0.1% aqueous solution
[11] = 30 second exposure to 1% aqueous solution

Molecule | reduction in viability [1] | decrease in viability compared to non-treated control (D. vulgaris biofilms) | inhibition at 0.1 % strength (D. vulgaris biofilms; Nitratidesulfovibrio vulgaris, read-out: decrease in viability compared to non-treated control) | reduction in biofilm viability [2] | reduction in biofilm viability [3] | killing [4, 7] | log10 reduction in viability vs. non-treated controls [4, 7] | log10 reduction in viability vs. non-treated controls ([4]; aerobic, 0.01% w/v methylene blue with 20 mM L-tryptophan, 670 nm laser 20.6 J/cm2, planktonic) | killing [4, 8] | log10 reduction vs. non-treated control [4, 8] | log10 reduction from non-treated control ([4]; anaerobic, 0.01% w/v methylene blue with 20 mM L-tryptophan, 670 nm laser 20.6 J/cm2, planktonic) | antibacterial action ([4]; control: photosensitizer composition alone, no illumination) | reduction in viability vs. non-treated control [5, 9] | reduction in viability vs. non-treated control [5, 10] | reduction in viability vs. non-treated control [5, 11] | reduction in viability vs. non-treated control [6, 9] | reduction in viability vs. non-treated control [6, 10] | reduction in viability vs. non-treated control [6, 11]
CN(C)c1ccc2nc3ccc(=[N+](C)C)cc-3sc2c1 [methylene blue] | did not result in a significant reduction in viability | 1.5 log10 | ~95% | Neither the methylene blue formulation nor the laser light alone led to any significant reduction | Neither the methylene blue formulation nor the laser light alone led to any significant reduction | > 99.99% | 4.4±2.3 log10 | 1.7±0.6 log10 | > 99.9% | 3.5±0.8 log10 | 2.5±2.1 log10 | No significant antibacterial action |  |  |  |  |  | 
benzalkonium chloride [BAC] |  |  |  |  |  |  |  |  |  |  |  |  | 0.6 log10 | 2.7 log10 | 1.9 log10 | 0.5 log10 | 1.4 log10 | 1.5 log10
